# Data as given in ChEMBL document CHEMBL1201862, “PubChem BioAssay data set” (2004).
# Activity calls are given as the source filed them.
# Assays:
# [1] = molecular target: Arf-GAP with SH3 domain, ANK repeat and PH domain-containing protein 1 (Homo sapiens, UniProt Q9ULH1); assay type: functional;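 further: biochemical fluorescence polarization dose–response screen measuring inhibition of ASAP1; ASAP1 GAP domain stimulating GTP hydrolysis by truncated human ARF1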
# [2] = molecular target: 5-hydroxytryptamine receptor 2A (Mus musculus, UniProt P35363); assay type: functional, cell-based;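 further: CHO-K1 cells with tagged receptor and beta-arrestin; agonist potency measured as compound-induced activation of the receptor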
# 5-hydroxytryptamine receptor 2A, sequence (P35363 whole entry): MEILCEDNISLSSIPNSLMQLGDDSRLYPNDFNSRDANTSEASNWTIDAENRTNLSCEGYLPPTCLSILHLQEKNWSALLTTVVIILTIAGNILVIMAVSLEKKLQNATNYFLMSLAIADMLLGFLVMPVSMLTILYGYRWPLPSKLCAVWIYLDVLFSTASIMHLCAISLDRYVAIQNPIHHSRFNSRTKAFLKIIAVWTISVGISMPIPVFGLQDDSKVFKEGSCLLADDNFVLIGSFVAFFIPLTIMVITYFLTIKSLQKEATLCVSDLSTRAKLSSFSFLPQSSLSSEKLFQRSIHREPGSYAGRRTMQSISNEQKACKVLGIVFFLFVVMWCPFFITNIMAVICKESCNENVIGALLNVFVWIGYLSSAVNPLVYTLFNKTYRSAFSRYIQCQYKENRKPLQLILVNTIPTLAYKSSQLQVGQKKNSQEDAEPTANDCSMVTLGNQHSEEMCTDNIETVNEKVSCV
# Mu-type opioid receptor [3] = molecular target: T1, Mu-type opioid receptor (Homo sapiens, UniProt P35372); assay type: functional, cell-based;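 on EC50: U2OS cells with beta-arrestin recruitment to OPRM1 by beta-gal complementation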
# T1 sequence (P35372 whole entry): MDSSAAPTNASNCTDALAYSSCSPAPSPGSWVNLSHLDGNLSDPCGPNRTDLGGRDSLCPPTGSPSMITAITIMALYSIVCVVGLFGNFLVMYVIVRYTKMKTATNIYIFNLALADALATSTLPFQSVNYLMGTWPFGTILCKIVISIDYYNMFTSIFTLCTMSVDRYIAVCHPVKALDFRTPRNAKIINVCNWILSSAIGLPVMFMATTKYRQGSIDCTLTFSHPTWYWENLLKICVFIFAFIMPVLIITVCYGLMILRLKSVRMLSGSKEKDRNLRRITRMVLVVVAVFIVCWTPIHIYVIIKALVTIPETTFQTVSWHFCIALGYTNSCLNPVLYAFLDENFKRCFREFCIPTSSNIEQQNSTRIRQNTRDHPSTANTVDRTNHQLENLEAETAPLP
# Beta-lactamase [4] = molecular target: Beta-lactamase (Salmonella choleraesuis (strain SC-B67), UniProt Q5J463); assay: Epi-absorbance-based counterscreen for selective VIM-2 inhibitors: dose response biochemical high throughput screening assay to identify inhibitors of TEM-1 serine-beta-lactamase.
# Beta-lactamase (Salmonella choleraesuis (strain SC-B67), UniProt Q5J463), sequence (Q5J463 whole entry): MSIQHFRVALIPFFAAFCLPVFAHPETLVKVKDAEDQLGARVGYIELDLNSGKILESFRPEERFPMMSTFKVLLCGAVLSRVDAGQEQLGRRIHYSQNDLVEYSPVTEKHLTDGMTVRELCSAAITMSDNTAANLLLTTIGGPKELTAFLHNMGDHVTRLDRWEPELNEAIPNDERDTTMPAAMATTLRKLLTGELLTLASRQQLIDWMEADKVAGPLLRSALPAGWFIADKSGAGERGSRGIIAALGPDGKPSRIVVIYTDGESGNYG
# [5] = molecular target: T2, Heat shock factor protein 1 (Mus musculus, UniProt P38532); assay: enhancement of HSF1-driven luciferase signal – cell-based, NIH3T3, luminescence, dose retest, confirmation (AID 435004); assay type: functional;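 further: stress induced by proteasome inhibitor MG132 added 30 min after compound; luciferase reporter driven by HSF1 response element in NIH3T3 cells; actives raise luminescence as potentiators of the MG132 stress response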
# T2 sequence (P38532 whole entry): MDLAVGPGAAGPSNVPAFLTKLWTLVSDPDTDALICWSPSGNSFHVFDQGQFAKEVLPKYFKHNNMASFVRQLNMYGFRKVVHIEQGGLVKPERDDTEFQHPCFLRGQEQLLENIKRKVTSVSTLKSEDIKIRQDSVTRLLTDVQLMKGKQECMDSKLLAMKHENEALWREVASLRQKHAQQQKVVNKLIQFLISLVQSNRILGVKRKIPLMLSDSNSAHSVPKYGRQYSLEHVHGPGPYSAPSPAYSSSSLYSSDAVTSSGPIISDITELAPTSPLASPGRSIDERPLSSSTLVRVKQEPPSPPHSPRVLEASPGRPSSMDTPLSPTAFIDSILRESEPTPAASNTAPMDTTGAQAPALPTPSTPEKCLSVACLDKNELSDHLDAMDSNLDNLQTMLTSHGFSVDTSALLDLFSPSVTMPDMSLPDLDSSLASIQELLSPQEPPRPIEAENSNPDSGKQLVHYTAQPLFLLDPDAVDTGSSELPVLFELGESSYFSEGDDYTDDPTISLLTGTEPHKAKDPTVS
# Beta-lactamase [6] = molecular target: T3, Beta-lactamase (Pseudomonas aeruginosa, UniProt Q79MP6); assay: […] counterscreen for selective VIM-2 inhibitors: dose response biochemical high throughput screening assay to identify inhibitors of IMP-1 metallo-beta-lactamase.
# T3 sequence (Q79MP6 whole entry): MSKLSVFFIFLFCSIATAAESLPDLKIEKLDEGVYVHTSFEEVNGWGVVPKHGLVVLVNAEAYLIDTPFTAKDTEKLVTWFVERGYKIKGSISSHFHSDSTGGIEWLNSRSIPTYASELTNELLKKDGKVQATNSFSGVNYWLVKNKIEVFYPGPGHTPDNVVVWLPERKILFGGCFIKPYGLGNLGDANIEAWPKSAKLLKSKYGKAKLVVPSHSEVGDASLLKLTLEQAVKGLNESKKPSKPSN
# Beta-lactamase [7] = molecular target: T3, Beta-lactamase; assay: inhibition of IMP-1 beta-lactamase activity – biochemical, epi-absorbance, selectivity assay for VIM-2 inhibitor project, dose response (AID 1920)
# Leucine aminopeptidase = molecular target: T4, Leucine aminopeptidase (Plasmodium falciparum 3D7, UniProt Q8IL11); assay: P. falciparum M17LAP inhibitors, primary screen, biochemical, fluorogenic H-Leu-NHMec substrate, 1536-well (AID 1619); assay type: functional
# T4 sequence (Q8IL11 whole entry): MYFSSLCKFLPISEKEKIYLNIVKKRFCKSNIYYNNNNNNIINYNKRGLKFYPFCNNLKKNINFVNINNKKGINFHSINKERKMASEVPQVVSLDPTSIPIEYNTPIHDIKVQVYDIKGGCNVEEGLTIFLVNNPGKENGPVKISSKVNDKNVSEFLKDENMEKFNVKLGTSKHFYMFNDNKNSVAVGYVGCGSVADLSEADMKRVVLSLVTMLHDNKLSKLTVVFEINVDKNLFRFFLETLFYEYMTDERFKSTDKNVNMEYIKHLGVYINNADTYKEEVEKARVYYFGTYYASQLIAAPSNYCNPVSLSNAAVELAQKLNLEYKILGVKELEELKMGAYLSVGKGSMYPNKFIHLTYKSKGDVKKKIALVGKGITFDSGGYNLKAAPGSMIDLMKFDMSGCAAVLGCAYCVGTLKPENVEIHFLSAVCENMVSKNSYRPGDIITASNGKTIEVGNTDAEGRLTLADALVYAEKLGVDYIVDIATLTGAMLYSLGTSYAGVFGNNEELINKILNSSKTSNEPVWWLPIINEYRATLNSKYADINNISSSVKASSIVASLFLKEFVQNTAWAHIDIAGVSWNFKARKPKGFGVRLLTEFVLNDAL
# fMet-Leu-Phe receptor = fMet-Leu-Phe receptor (Homo sapiens, UniProt P21462); assay: formyl peptide receptor binders – dose response (AID 519); assay type: functional
# fMet-Leu-Phe receptor, sequence (P21462 whole entry): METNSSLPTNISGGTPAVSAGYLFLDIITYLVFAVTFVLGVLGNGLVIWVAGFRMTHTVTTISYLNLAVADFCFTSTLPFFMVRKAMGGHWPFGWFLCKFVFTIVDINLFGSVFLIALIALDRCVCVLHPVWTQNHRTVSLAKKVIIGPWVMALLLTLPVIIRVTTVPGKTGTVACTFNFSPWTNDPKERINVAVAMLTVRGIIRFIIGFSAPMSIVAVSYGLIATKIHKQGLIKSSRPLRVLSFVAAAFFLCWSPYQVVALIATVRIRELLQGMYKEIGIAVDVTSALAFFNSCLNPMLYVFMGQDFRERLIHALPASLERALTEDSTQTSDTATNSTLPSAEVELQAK
# [8] = blockade of melanocortin 4 receptor signaling – cell-based, plate reader, cherry pick, counter-screen for LGR2 antagonist project, dose response (AID 743444); assay type: functional;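 further: transfected HEK 293 cells stimulated with alpha-MSH peptide; potency of inhibitors of the alpha-MSH evoked signal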
# [9] = blockers of bursicon-stimulated LGR2 cAMP reporter – cell-based, HEK293, CRE-luciferase reporter, cherry pick, set 2, dose response (AID 743343); assay type: functional;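 further: transfected cells were stimulated with diluted bursicon conditioned medium after compound addition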
# [10] = viability loss in HEK293 cells – cell-based, plate reader, cherry-picked samples, cytotoxicity control, dose response (AID 743446); assay type: functional
# cells = assay type: functional, cell-based
# [11] = molecular target: T5, Nuclear receptor subfamily 0 group B member 1 (Homo sapiens, UniProt P51843); assay type: functional, cell-based;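 further: HEK293T cells transfected with SF-1 and DAX-1 plus StAR promoter luciferase reporter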
# T5 sequence (P51843 whole entry): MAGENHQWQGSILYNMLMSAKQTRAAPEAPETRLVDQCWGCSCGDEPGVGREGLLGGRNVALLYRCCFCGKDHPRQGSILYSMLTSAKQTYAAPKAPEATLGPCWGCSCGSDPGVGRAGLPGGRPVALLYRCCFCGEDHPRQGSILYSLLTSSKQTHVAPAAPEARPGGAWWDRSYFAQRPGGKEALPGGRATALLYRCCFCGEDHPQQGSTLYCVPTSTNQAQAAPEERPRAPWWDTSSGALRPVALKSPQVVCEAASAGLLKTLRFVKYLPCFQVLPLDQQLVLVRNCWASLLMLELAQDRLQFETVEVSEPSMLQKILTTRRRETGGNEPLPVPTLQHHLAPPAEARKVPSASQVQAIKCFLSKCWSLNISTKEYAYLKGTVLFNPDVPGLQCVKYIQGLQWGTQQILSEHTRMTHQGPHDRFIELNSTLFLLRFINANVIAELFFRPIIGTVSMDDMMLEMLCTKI
# [12] = molecular target: ATP-dependent translocase ABCB1 (Homo sapiens, UniProt P08183); assay: inhibition of P-gp mediated JC-1 efflux – Jurkat-DNR cells, flow cytometry, dose response (AID 1689); assay type: functional
# [13] = bead-based luminescence quenchers, dual-tagged ARNT – biochemical, AlphaScreen, cherry-pick, artefact control for ARNT-TACC3 interaction inhibitor project, dose response (AID 651705); assay type: functional;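 further: AlphaScreen bead proximity signal that flags compounds interfering with the detection technology; potency reflects signal decrease which marks the compound as an assay artifact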
# [14] = molecular target: Disintegrin and metalloproteinase domain-containing protein 17 (Homo sapiens, UniProt P78536); assay: exosite inhibitors of ADAM17, dose response, biochemical (AID 743260)
# [15] = inhibition of ADAM10 peptide cleavage – biochemical, FRET peptide substrate, recombinant human ADAM10, selectivity assay for ADAM17 exosite inhibitor project, dose response (AID 743259);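 further: ADAM10 enzyme cleaving a FRET peptide substrate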
# Interleukin-8 [16] = molecular target: T6, Interleukin-8 (Homo sapiens, UniProt P10145); assay: Dose Response confirmation of uHTS small molecule hits for cystic fibrosis induced NFkb Inhibitors in a PAF-induced IL8 counterscreen.; assay type: functional; conditions: read-out: IC50_Mean
# T6 sequence (P10145 whole entry): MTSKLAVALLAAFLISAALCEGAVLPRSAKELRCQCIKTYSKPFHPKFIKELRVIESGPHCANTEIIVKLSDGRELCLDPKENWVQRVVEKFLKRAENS
# [17] = molecular target: Nucleotide-binding oligomerization domain-containing protein 2 (Homo sapiens, UniProt Q9HC29); assay: inhibition of NOD2-driven NF-kB reporter – cell-based, luminescence, uHTS, HEK293 (AID 1566); assay type: functional
# Nucleotide-binding oligomerization domain-containing protein 2, sequence (Q9HC29 whole entry, the tested form may be a part): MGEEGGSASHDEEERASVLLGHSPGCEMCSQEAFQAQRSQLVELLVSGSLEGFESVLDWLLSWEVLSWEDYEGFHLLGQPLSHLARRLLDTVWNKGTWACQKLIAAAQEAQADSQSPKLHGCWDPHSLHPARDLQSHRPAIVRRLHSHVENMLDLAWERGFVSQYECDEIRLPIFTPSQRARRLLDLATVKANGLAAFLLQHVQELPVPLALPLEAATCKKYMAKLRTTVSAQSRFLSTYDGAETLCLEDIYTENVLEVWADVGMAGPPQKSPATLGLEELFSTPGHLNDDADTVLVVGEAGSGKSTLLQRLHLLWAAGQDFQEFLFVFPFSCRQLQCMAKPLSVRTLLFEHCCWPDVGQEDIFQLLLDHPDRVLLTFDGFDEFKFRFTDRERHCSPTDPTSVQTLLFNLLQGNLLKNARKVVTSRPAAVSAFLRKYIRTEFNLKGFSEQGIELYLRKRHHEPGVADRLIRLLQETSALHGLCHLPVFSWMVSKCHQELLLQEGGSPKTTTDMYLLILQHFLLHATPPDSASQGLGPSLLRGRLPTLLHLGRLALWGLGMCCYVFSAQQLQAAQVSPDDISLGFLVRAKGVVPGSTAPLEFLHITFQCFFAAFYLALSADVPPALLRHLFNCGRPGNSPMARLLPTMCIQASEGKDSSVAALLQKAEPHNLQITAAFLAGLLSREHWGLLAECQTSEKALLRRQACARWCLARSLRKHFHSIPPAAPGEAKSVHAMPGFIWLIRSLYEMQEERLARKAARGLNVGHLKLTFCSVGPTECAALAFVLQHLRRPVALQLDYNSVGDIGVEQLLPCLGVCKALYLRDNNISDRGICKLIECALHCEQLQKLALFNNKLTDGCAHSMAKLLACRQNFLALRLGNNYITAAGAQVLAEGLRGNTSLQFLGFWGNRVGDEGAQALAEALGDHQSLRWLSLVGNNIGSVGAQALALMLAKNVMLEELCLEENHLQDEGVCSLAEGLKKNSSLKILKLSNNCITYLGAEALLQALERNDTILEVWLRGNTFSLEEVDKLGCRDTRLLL
# HEK293 [18] = assay: inhibition of NOD1-driven NF-kB reporter – cell-based, luminescence, uHTS, primary screen (AID 1578); assay type: functional; conditions: Homo sapiens
# Interleukin-8 [19] = molecular target: T6, Interleukin-8; assay: Dose Response confirmation of uHTS small molecule hits for cystic fibrosis induced NFkb Inhibitors in a TNFa-induced IL8 counterscreen.; assay type: functional; conditions: read-out: IC50_Mean
# HEK293 [20] = assay: cells; assay type: functional, cell-based; conditions: Homo sapiens
# HEK293 [21] = assay: cells; assay type: functional, cell-based; conditions: Homo sapiens; remark: listed apart in the source
# HEK293 [22] = assay: NOD2 signaling inhibitors in MDP-stimulated cells, cell-based, uHTS, luminescence (AID 2001); assay type: functional; conditions: Homo sapiens
# HEK293 [23] = assay: cells; assay type: functional, cell-based; conditions: Homo sapiens; remark: listed apart in the source
# [24] = molecular target: T7, Low molecular weight phosphotyrosine protein phosphatase (Homo sapiens, UniProt P24666); assay type: functional; conditions: read-out: IC50_Mean
# T7 sequence (P24666 whole entry): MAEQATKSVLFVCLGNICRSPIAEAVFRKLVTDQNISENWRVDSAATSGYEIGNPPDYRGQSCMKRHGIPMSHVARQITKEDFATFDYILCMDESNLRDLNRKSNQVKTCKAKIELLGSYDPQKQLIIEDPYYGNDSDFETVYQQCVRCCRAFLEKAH
# [25] = molecular target: T7, Low molecular weight phosphotyrosine protein phosphatase; assay type: functional; conditions: read-out: IC50_Mean; remark: listed apart in the source
# [26] = activation of miR-122 Renilla sensor silencing – cell-based, Huh7 psiCHECK-miR122, Renilla luciferase, cherry-picked, dose response (AID 651956); assay type: functional;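 further: huh7 hepatoma cells stably carrying a psiCHECK-2 miR-122 sensor plasmid; renilla luciferase signal reporting endogenous miR-122 activity after 48 h compound exposure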
# [27] = viability loss in LCL cells – cell-based, plate reader, dry powder, set 2, cytotoxicity control, dose response (AID 624367); assay type: functional
# [28] = general mammalian cell viability loss – inhibitor set, cherry-pick, set 2, cytotoxicity control for miR-122 modulator project, dose response (AID 720697); assay type: functional, cell-based
# [29] = inhibitors of EBV LMP1 NF-kappaB signaling – cell-based, luciferase reporter, luminescence, dry powder, set 2, dose response (AID 624376); assay type: functional
# [30] = OVCAR8 cell viability loss – plate reader, dry powder samples, PAX8 project, dose response (AID 743197); assay type: functional, cell-based; conditions: OVCAR-8
# [31] = A2780 cell killing – plate reader, dry powder samples, cytotoxicity control, dose response (AID 743046); assay type: functional, cell-based
# Mu-type opioid receptor [32] = molecular target: T1, Mu-type opioid receptor; assay: Late-stage results from the probe development effort to identify antagonists of OPRK1: luminescence-based cell-based dose response OPRM1 counterscreen, Set 2.; assay type: functional
# [33] = molecular target: Delta-type opioid receptor (Homo sapiens, UniProt P41143); assay: Late-stage results from the probe development effort to identify antagonists of OPRK1: fluorescence-based cell-based dose response OPRD1 counterscreen, Set 2.; assay type: functional
# Delta-type opioid receptor, sequence (P41143 whole entry): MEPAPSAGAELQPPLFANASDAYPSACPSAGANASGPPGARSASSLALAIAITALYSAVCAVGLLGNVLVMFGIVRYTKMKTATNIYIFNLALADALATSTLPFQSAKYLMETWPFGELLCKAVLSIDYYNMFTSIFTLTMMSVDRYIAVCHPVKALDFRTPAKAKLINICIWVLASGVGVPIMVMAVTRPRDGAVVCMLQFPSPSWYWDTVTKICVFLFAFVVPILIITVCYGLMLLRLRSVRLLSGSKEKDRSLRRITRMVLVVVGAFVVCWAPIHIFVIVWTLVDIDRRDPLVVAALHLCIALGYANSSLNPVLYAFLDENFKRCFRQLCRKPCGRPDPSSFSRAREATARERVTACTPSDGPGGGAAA
# [34] = molecular target: Kappa-type opioid receptor (Homo sapiens, UniProt P41145); assay: Late-stage fluorescence-based cell-based dose response assay for antagonists of kappa opioid receptor 1 (OPRK1).; assay type: functional
# [35] = molecular target: Sphingosine 1-phosphate receptor 1 (Homo sapiens, UniProt P21453); assay: Late-stage counterscreen for antagonists of kappa opioid receptor 1 (OPRK1): fluorescence-based cell-based dose response assay to identify antagonists of Sphingosine 1-Phosphate Receptor 1 (S1P1).; assay type: functional
# Sphingosine 1-phosphate receptor 1, sequence (P21453 whole entry): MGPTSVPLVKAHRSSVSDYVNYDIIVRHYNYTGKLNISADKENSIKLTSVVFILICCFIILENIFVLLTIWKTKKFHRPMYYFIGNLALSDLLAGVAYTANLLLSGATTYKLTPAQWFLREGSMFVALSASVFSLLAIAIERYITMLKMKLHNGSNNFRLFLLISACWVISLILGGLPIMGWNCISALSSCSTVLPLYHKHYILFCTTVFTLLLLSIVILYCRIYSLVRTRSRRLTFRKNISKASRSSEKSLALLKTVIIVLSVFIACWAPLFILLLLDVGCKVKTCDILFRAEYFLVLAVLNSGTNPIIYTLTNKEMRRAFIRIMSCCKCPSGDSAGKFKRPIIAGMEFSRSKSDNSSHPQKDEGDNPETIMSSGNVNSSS
# Arf-GAP with SH3 domain, ANK repeat and PH domain-containing protein 1, sequence (Q9ULH1 whole entry, the tested form may be a part): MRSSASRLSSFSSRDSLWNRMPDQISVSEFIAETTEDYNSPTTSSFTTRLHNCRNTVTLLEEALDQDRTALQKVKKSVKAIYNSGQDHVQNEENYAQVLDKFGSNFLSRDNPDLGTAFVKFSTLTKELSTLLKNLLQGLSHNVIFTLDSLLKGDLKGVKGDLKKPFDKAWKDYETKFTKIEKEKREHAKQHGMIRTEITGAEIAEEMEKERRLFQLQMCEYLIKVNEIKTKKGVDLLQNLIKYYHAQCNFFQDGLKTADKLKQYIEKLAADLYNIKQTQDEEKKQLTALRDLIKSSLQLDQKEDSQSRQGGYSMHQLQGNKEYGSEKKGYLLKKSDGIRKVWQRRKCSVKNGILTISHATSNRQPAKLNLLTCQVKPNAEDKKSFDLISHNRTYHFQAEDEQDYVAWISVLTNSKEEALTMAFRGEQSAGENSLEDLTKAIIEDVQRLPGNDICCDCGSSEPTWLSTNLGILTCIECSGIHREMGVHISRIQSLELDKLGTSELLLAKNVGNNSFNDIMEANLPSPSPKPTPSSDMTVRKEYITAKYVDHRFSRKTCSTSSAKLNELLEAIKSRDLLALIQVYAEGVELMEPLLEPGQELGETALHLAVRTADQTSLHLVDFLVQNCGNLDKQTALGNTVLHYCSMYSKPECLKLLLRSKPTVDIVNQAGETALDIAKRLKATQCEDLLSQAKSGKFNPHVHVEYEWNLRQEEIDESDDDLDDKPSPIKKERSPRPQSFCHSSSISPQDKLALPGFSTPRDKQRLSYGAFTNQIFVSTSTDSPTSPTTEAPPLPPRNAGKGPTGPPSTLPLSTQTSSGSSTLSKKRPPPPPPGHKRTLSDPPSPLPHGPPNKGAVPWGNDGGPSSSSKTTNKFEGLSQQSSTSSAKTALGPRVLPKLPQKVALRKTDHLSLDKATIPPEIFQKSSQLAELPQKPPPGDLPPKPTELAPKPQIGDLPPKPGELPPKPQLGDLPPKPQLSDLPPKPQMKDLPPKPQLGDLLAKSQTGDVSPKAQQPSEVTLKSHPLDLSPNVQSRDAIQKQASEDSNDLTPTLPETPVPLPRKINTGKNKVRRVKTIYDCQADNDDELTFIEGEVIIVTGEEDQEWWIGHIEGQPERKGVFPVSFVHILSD
smiles,measurement,setting,value
O=C(Cn1cncc1-c1ccc([N+](=O)[O-])cc1)Nc1cccc2ccccc12,IC50,[1],28.1 µM (inactive)
O=C(C[n+]1cc(-c2ccccc2)n2c1CCC2)Nc1nc(-c2ccc(F)cc2)cs1,EC50,[2],76.1 µM (inactive)
same,EC50,Mu-type opioid receptor [3],92.5 µM (inactive)
CC(C)(C)c1ccc(COc2ccsc2C(=O)O)cc1,IC50,Beta-lactamase [4],> 59.6 µM (inactive)
same,EC50,[5],137 µM (active)
same,IC50,Beta-lactamase [6],> 59.6 µM (inactive)
same,IC50,Beta-lactamase [7],> 59.6 µM (inactive)
same,IC50,Leucine aminopeptidase,11.5 µM (active)
COc1ccc(OC)c(NC(=O)C2C3CCC(C3=C(C)C)C2C(=O)O)c1 (stereo not drawn),Ki,fMet-Leu-Phe receptor,> 66.7 µM (inactive)
Cc1ccnc(NC(=O)c2cccc(S(=O)(=O)N3CCN(c4ccccc4)CC3)c2)c1,AC50,[8],14.6 µM (active)
same,AC50,[9],12.4 µM (active)
same,AC50,[10],> 52 µM (inactive)
same,IC50,cells,> 67.5 µM (inactive)
same,IC50,[11],> 67.5 µM (inactive)
Cc1nc2cc(-c3cccc(F)c3)nn2c(N2CCN(C(=O)c3ccco3)CC2)c1C,EC50,[12],14.6 µM (inactive)
O=C(Nc1ccc(F)cc1)c1nc[nH]c1C(=O)O,AC50,[13],105 µM (active)
COC(=O)C1=C(c2cccc(OCc3ccccc3)c2)C[C@@H]2CC[C@H]1N2C(=O)NCCOc1ccc(OC)cc1,IC50,[14],> 69.5 µM (inactive)
same,IC50,[15],12.1 µM (inactive)
CCSc1nsc(NC(=O)Nc2cccc(C(C)=O)c2)n1,IC50,Interleukin-8 [16],5.42 µM (active)
same,EC50,[17],6.47 µM (active)
same,EC50,HEK293 [18],4.27 µM (active)
same,IC50,Interleukin-8 [19],1.77 µM (active)
same,IC50,HEK293 [20],> 20 µM (inactive)
same,IC50,HEK293 [21],1.27 µM (active)
same,IC50,HEK293 [22],2.39 µM (active)
same,IC50,HEK293 [23],> 20 µM (inactive)
COCCNc1nc(NCc2cccc(OC)c2OC)c2sccc2n1,IC50,[24],12.8 µM (active)
same,IC50,[25],8.2 µM (active)
C[C@H](CO)N1C[C@H](C)[C@H](CN(C)C(=O)NC2CCCCC2)Oc2cc(/C=C/c3ccccc3)ccc2S1(=O)=O,AC50,[26],19.1 µM (active)
same,AbsAC35,[27],53.47 µM
same,AC50,[28],15.9 µM (active)
Cc1noc(C)c1S(=O)(=O)Nc1ccc2c(c1)C(=O)N([C@@H](C)CO)C[C@H](C)[C@@H](CN(C)Cc1ccc(C(F)(F)F)cc1)OCCCC[C@@H](C)O2,AbsAC35,[29],101.91 µM
COc1ccc(-c2cn(CC[C@H]3CC[C@@H](NC(=O)Cc4ccccn4)[C@@H](CO)O3)nn2)cc1,AC50,[30],> 70 µM (inactive)
same,AC50,[31],0.315 µM (active)
CCOC(=O)c1ccc(N2CC3CCCCN3C2c2cccc(OC)c2O)cc1 (stereo not drawn),IC50,Mu-type opioid receptor [32],> 50 µM (inactive)
same,IC50,[33],> 50 µM (inactive)
same,IC50,[34],6.85 µM (active)
same,IC50,[35],> 50 µM (inactive)
